From patent US6962909B2, “Treatment of neovascularization disorders with squalimine” (Genaera Corporation, priority 1995, dated 2005)
Converted amounts (≈) assume the structure as drawn.

What was measured:
[1] = system: human microvascular cells; assay: Endothelial cord formation assay; assay type: cell-based; as to Effect on endothelial cord formation: key: + = Inhibition of angiogenesis; − = No inhibition of angiogenesis; T = Toxic; *= cell rounding @ 10 µg/ml
Text: Endothelial cells have the capacity in vitro to form tubular aggregates resembling capillaries in various early stages of formation. This conversion occurs under relatively specific conditions, in which essential growth factors along with an effective substratum are provided. It has been shown that both the interaction of growth factors with the endothelial cell and its attachment to a substratum activate the NHE. The activation of this exchanger is believed to be required for subsequent morphologic transformation of the endothelial cell into a multicellular tubular structure.
To assess the effect of compounds on the cord-like structures formed by human microvascular cells when plated in the presence of VGEF (Vascular Endothelial Growth Factor) and basic fibroblast growth factor on a collagen matrix, a standard cord formation assay was used.

[2] = system: vitelline capillaries of 3- to 5-day chick embryo; assay: Chick embryo vitelline capillary regression assay; assay type: in vivo; design: key to Vascular reactivity (capillary regression): + = Vascular reactivity; 0 = No vascular reactivity; +/− = Equivocal reactivity; conditions: 60 minutes
Description: Using the chick embryo vitelline capillaries assay, compounds were tested for their ability to induce capillary regression. Each compound was applied in 0.1 ml of 15% Ficol 400 and PBS onto the embryo, and vascular regression was assessed after 60 minutes.
The 3-day chick embryo consists of an embryonic disc from which numerous vessels emerge and return, forming a “figure 8”-shaped structure—the embryo in the center with vascular loops extending outward over both poles. […] Following a lag period of around 15 minutes, the constriction of continuity between capillary and secondary vessels, generally on the “venous” side, was observed. Continued pulsatile blood flow progressed, resulting in a “swelling” of the blind tube, followed by a pinching off of the remaining connection and formation of an enclosed vascular sac resembling a “blood island.” This process progressed until only the largest vessels remained intact.

S. aureus = assay: Antibiotic activity, MIC; assay type: cell-based; conditions: Staphylococcus aureus
E. coli = assay: Antibiotic activity, MIC; assay type: cell-based; conditions: Escherichia coli
[3] = system: Stage 59-60 Xenopus tadpoles; assay: Xenopus tadpole assay; assay type: in vivo, Xenopus laevis; conditions: 10 μg/ml in water
Text: A newly developed assay employing tadpoles, preferably Xenopus laevis Stages 59-60, were employed to study the effect of a compound by monitoring capillary occlusion in the tadpole's tail. […] The compounds of the invention affect the shape, viability and integrity of the embryonic tissues while not affecting the adult tissues, providing a powerful, highly specific screen. For example, substances that destroy all of the animal's epithelium, both adult and embryonic, could be regarded as toxic.
In this assay, tadpoles are introduced into Petri dishes containing a solution of the test compound in distilled water, preferably about 100 ml. The preferred concentration of the test compound is from about 1 μg/ml to about 10 μg/ml. The volume of liquid is sufficient for the animal to swim freely and drink from the solution. Thus, the effect observed results from oral absorption and subsequent systemic distribution of the agent. If the volume of liquid is not sufficient to permit oral intake, the effects that are observed would result from absorption through the surface epithelium. Thus, this simple assay can identify if an compound has characteristics of oral availability.
After an amount of time, typically about 60 minutes, the occlusion of blood flow through capillaries in the tadpole's tail are observed under an inverted microscope at a magnification of roughly 100×.
The tadpole assay described above provides an advantageous way to determine the pharmacological targets of each steroid when introduced into a mammal, and to determine pharmacological categories into which synthetic compounds belong. In the assay, each of the steroids was dissolved in 100 ml of distilled water at a concentration of 10 μg/ml. Stage 59-60 Xenopus tadpoles were introduced and evaluated by light microscopy and gross observation 1 hour later.

COC(=O)CCC(C)[C@H]1CCC2C3C(CC[C@@]21C)[C@@]1(C)CC[C@H](NCCCNCCCCNCCCN)C[C@H]1C[C@H]3O (stereo partly drawn) [Compound 411]
Effect on endothelial cord formation ([1]; 0.1 μg/ml): − | Effect on endothelial cord formation ([1]; 1.0 μg/ml): − | Effect on endothelial cord formation ([1]; 10.0 μg/ml): + | Vascular reactivity (capillary regression) ([2]; 0.001 μg applied): 0 | Vascular reactivity (capillary regression) ([2]; 0.01 μg applied): 0 | Vascular reactivity (capillary regression) ([2]; 0.1 μg applied): 0 | Vascular reactivity (capillary regression) ([2]; 1 μg applied): +/−

CC(CCC(=O)O)[C@H]1CCC2C3C(CC[C@@]21C)[C@@]1(C)CC[C@H](NCCCNCCCCNCCCN)C[C@@H]1C[C@H]3O (stereo partly drawn)
MIC (S. aureus): 16 µg/mL (≈ 27.7 µM) | MIC (E. coli): 32 to 64 µg/mL (≈ 55.5 to 111 µM)

COC(O)CCC(C)[C@H]1CCC2C3C(CC[C@@]21C)[C@@]1(C)CC[C@H](NCCCNCCCCNCCCN)C[C@H]1C[C@H]3O (stereo partly drawn)
Cord Formation, Minimum Effective Concentration [1]: 10 µg/mL

CC(C)CCCC(C)[C@H]1CCC2C3C(CC[C@@]21C)[C@@]1(C)CC[C@H](N)C[C@@H]1C[C@H]3O (stereo partly drawn) [Compound 1364]
Vascular reactivity (capillary regression) ([2]; 0.001 μg applied): 0 | Vascular reactivity (capillary regression) ([2]; 0.01 μg applied): 0 | Vascular reactivity (capillary regression) ([2]; 0.1 μg applied): 0 | Vascular reactivity (capillary regression) ([2]; 1 μg applied): + | Vascular reactivity (capillary regression) ([2]; 10 μg applied): +

COC(=O)CCC(C)[C@H]1CCC2C3C(CC[C@@]21C)[C@@]1(C)CC[C@@H](NCCN)C[C@H]1C[C@H]3O (stereo partly drawn) [drawing 118]
Cord Formation, Minimum Effective Concentration [1]: 10 µg/mL

CC(CCC(=O)O)[C@H]1CCC2C3CC[C@@H]4C[C@H](NCCCNCCCCNCCCN)CC[C@]4(C)C3C[C@H](O)[C@@]21C (stereo partly drawn) [Compound 449]
Effect on endothelial cord formation ([1]; 1.0 μg/ml): −

COC(=O)CCC(C)[C@H]1CCC2C3CC[C@@H]4C[C@H](NCCN)CC[C@]4(C)C3C[C@H](O)[C@@]21C (stereo partly drawn) [Compound 416]
Pharmacological category in tadpole assay (similarity to a reference steroid) [3]: functionally similar to compound 1437

CC(C)CCCC(C)[C@H]1CCC2C3C(CC[C@@]21C)[C@@]1(C)CC[C@@H](NCCCNCCCCN)C[C@@H]1C[C@H]3O (stereo partly drawn) [Compound 370]
Pharmacological category in tadpole assay (similarity to a reference steroid) [3]: pharmacologic activity similar to that seen for FX 3

COC(=O)CCC(C)[C@H]1CCC2C3C(CC[C@@]21C)[C@@]1(C)CC[C@H](NCCCNCCCCNCCCN)C[C@@H]1C[C@H]3O (stereo partly drawn) [Compound 396]
Vascular reactivity (capillary regression) ([2]; 0.001 μg applied): 0 | Vascular reactivity (capillary regression) ([2]; 0.01 μg applied): 0 | Vascular reactivity (capillary regression) ([2]; 0.1 μg applied): 0 | Vascular reactivity (capillary regression) ([2]; 1 μg applied): +

CC(C)CCCC(C)[C@H]1CCC2C3C(CC[C@@]21C)[C@@]1(C)CC[C@@H](N)C[C@@H]1C[C@H]3O (stereo partly drawn) [Compound 1363]
Pharmacological category in tadpole assay (similarity to a reference steroid) [3]: pharmacologic activity similar to Fraction 1

COC(=O)CCC(C)[C@H]1CCC2C3C(CC[C@@]21C)[C@@]1(C)CC[C@@H](NCCN)C[C@H]1C[C@H]3O (stereo partly drawn) [drawing 70]
MIC (S. aureus): 16 µg/mL (≈ 35.7 µM) | MIC (E. coli): 16 µg/mL (≈ 35.7 µM)

COC(=O)CCC(C)[C@H]1CCC2C3C[C@@H](O)[C@H]4C[C@H](NCCN)CC[C@]4(C)C3CC[C@@]21C (stereo partly drawn) [Compound 431]
Pharmacological category in tadpole assay (similarity to a reference steroid) [3]: functionally similar to compound 1437

CC(CCC(=O)O)[C@H]1CCC2C3C(CC[C@@]21C)[C@@]1(C)CC[C@H](NCCCNCCCCNCCCN)C[C@H]1C[C@H]3O (stereo partly drawn) [drawing 73]
MIC (S. aureus): 8 µg/mL (≈ 13.9 µM) | MIC (E. coli): 256 µg/mL (≈ 444 µM)

CC(CCC(=O)O)[C@H]1CCC2C3C(CC[C@@]21C)[C@@]1(C)CC[C@H](NCCN)C[C@H]1C[C@H]3O (stereo partly drawn) [Compound 415]
Effect on endothelial cord formation ([1]; 0.1 μg/ml): − | Effect on endothelial cord formation ([1]; 1.0 μg/ml): − | Effect on endothelial cord formation ([1]; 10.0 μg/ml): +/T | Vascular reactivity (capillary regression) ([2]; 0.001 μg applied): 0 | Vascular reactivity (capillary regression) ([2]; 0.01 μg applied): + | Vascular reactivity (capillary regression) ([2]; 0.1 μg applied): + | Vascular reactivity (capillary regression) ([2]; 1 μg applied): +

CC(CCC(=O)O)[C@H]1CCC2C3CC[C@H]4C[C@H](NCCCNCCCCN)CC[C@]4(C)C3CC[C@@]21C (stereo partly drawn) [Compound 318]
Vascular reactivity (capillary regression) ([2]; 1 μg applied): 0

COC(=O)CCC(C)[C@H]1CCC2C3C[C@@H](O)[C@H]4C[C@@H](NCCCNCCCCNCCCN)CC[C@]4(C)C3CC[C@@]21C (stereo partly drawn) [Compound 466]
Pharmacological category in tadpole assay (similarity to a reference steroid) [3]: pharmacologic activity similar to that seen for FX 3

CC(CCC(=O)C(C)(C)OS(=O)(=O)O)[C@H]1CCC2C3C(CC[C@@]21C)[C@@]1(C)CC[C@H](NCCCNCCCCN)C[C@@H]1C[C@H]3O (stereo partly drawn) [FX1A]
Pharmacological response observed in tadpole ([3]; about 1 hour): fecal elimination is dramatically increased

CC(C)CCCC(C)[C@H]1CCC2C3CC[C@H]4C[C@@H](NCCCNCCCCN)CC[C@]4(C)C3CC[C@@]21C (stereo partly drawn) [Compound 303]
Vascular reactivity (capillary regression) ([2]; 1 μg applied): 0

COC(=O)CCC(C)[C@H]1CCC2C3CC[C@H]4C[C@@H](NCCCNCCCCNCCCN)CC[C@]4(C)C3CC[C@@]21C (stereo partly drawn) [Compound 459]
Pharmacological category in tadpole assay (similarity to a reference steroid) [3]: pharmacologic activity similar to that seen for FX 3

CC(CCC(=O)O)[C@H]1CCC2C3C[C@@H](O)[C@H]4C[C@@H](NCCN)CC[C@]4(C)C3CC[C@@]21C (stereo partly drawn) [Compound 433]
Pharmacological category in tadpole assay (similarity to a reference steroid) [3]: functionally similar to compound 1437

CC(CCC(=O)O)[C@H]1CCC2C3C(CC[C@@]21C)[C@@]1(C)CC[C@H](NCCCNCCCCN)C[C@@H]1C[C@H]3O (stereo partly drawn) [Compound 381]
Vascular reactivity (capillary regression) ([2]; 1 μg applied): 0

COC(=O)CCC(C)[C@H]1CCC2C3C(CC[C@@]21C)[C@@]1(C)CC[C@H](NCCCNCCCCN)C[C@H]1C[C@H]3O (stereo partly drawn)
MIC (S. aureus): 64 µg/mL (≈ 120 µM) | MIC (E. coli): 256 µg/mL (≈ 480 µM)

CO[C@@H]1[C@H](OC(=O)/C=C/C=C/C=C/C=C/C(=O)O)CC[C@]2(CO2)[C@H]1[C@@]1(C)O[C@@H]1CC=C(C)C [Fumagillin, reference compound]
Concentration that inhibits cord formation [1]: 10 µg/mL | Effect on endothelial cord formation ([1]; 0.1 μg/ml): − | Effect on endothelial cord formation ([1]; 10.0 μg/ml): +

CC(C)CCCC(C)[C@H]1CCC2C3C(CC[C@@]21C)[C@@]1(C)CC[C@H](N)C[C@@H]1C[C@H]3O (stereo partly drawn)
MIC (S. aureus): 2 µg/mL (≈ 4.95 µM) | MIC (E. coli): > 256 µg/mL

COC(=O)CCC(C)[C@H]1CCC2C3CC[C@H]4C[C@H](NCCCNCCCCNCCCN)CC[C@]4(C)C3CC[C@@]21C (stereo partly drawn) [Compound 458]
Pharmacological category in tadpole assay (similarity to a reference steroid) [3]: pharmacologic activity similar to that seen for FX 3

CC(CCC(=O)O)[C@H]1CCC2C3C(CC[C@@]21C)[C@@]1(C)CC[C@H](NCCCNCCCCNCCCN)C[C@H]1C[C@H]3O (stereo partly drawn) [drawing 154]
Cord Formation, Minimum Effective Concentration [1]: >10 µg/mL

COC(=O)CCC(C)[C@H]1CCC2C3C(CC[C@@]21C)[C@@]1(C)CC[C@@H](NCCCNCCCCN)C[C@H]1C[C@H]3O (stereo partly drawn)
MIC (S. aureus): 4 µg/mL (≈ 7.49 µM) | MIC (E. coli): 32 to 64 µg/mL (≈ 59.9 to 120 µM)

CC(CCC(=O)O)[C@H]1CCC2C3C(CC[C@@]21C)[C@@]1(C)CC[C@@H](NCCCNCCCCNCCCN)C[C@H]1C[C@H]3O (stereo partly drawn) [drawing 72]
MIC (S. aureus): 8 µg/mL (≈ 13.9 µM)

CC(CCC(=O)O)[C@H]1CCC2C3C(CC[C@@]21C)[C@@]1(C)CC[C@H](NCCN)C[C@H]1C[C@H]3O (stereo partly drawn)
Cord Formation, Minimum Effective Concentration [1]: >10 µg/mL

COC(=O)CCC(C)[C@H]1CCC2C3C(CC[C@@]21C)[C@@]1(C)CC[C@H](NCCCNCCCCNCCCN)C[C@H]1C[C@H]3O (stereo partly drawn)
MIC (E. coli): 64 µg/mL (≈ 108 µM)

COC(=O)CCC(C)[C@H]1CCC2C3C[C@@H](O)[C@H]4C[C@H](NCCN)CC[C@]4(C)C3CC[C@@]21C (stereo partly drawn)
MIC (E. coli): 32 to 64 µg/mL (≈ 71.3 to 143 µM)

CC(CCC(=O)O)[C@H]1CCC2C3C(CC[C@@]21C)[C@@]1(C)CC[C@@H](NCCCNCCCCNCCCN)C[C@H]1C[C@H]3O (stereo partly drawn) [drawing 152]
Cord Formation, Minimum Effective Concentration [1]: >10 µg/mL

CC(CCC(=O)O)[C@H]1CCC2C3C[C@@H](O)[C@H]4C[C@@H](NCCCNCCCCNCCCN)CC[C@]4(C)C3CC[C@@]21C (stereo partly drawn) [Compound 467]
Effect on endothelial cord formation ([1]; 1.0 μg/ml): − | Effect on endothelial cord formation ([1]; 10.0 μg/ml): −

CC(CCC(=O)O)[C@H]1CCC2C3C(CC[C@@]21C)[C@@]1(C)CC[C@@H](NCCCNCCCCN)C[C@@H]1C[C@H]3O (stereo partly drawn) [Compound 382]
Vascular reactivity (capillary regression) ([2]; 0.001 μg applied): 0 | Vascular reactivity (capillary regression) ([2]; 0.01 μg applied): 0 | Vascular reactivity (capillary regression) ([2]; 0.1 μg applied): 0 | Vascular reactivity (capillary regression) ([2]; 1 μg applied): + | Vascular reactivity (capillary regression) ([2]; 10 μg applied): +
